Source: the supplement of paper PMC11061612

What was measured:
Assay in all cases: combination Emax (second highest fraction inhibited in the dose matrix, 72 h); higher = more inhibition; extreme values may be limits of the assay
[1] = test system: HuO-3N1 (Osteosarcoma)
Procedure, shortened: (§1)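 After 24 hours at 37°C and 5% CO2 in 1536-well plates, cells in DMEM/F12 or RPMI plus 10% FBS received two-drug dose matrices for 72 hours. Viability came from CellTiter-Glo 2.0 luminescence and was scaled as inhibition, anchored at 0 by vehicle wells and at 1 by blank wells. Combination Emax is taken as the second-highest inhibition in the matrix, and Bliss excess as the observed combination effect less EA + EB − EA·EB, with EA and EB the single-agent effects.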

[2] = test system: LAMA-84 (Chronic Myelogenous Leukemia)
Procedure, shortened: as §1

[3] = test system: LOUCY (T-Lymphoblastic Leukemia)
Procedure, shortened: as §1

[4] = test system: HSC-3 (Oral Cavity Carcinoma)
Procedure, shortened: as §1

[5] = test system: ES-2 (Ovarian Carcinoma)
Procedure, shortened: as §1

[6] = test system: PC-14 (Lung Adenocarcinoma)
Procedure, shortened: as §1

[7] = test system: CML-T1 (Chronic Myelogenous Leukemia)
Procedure, shortened: as §1

[8] = test system: OV-90 (Ovarian Carcinoma)
Procedure, shortened: as §1

[9] = test system: NCI-H196 (Small Cell Lung Carcinoma)
Procedure, shortened: as §1

[10] = test system: RL95-2 (Endometrial Carcinoma)
Procedure, shortened: as §1

[11] = test system: NKM-1 (Acute Myeloid Leukemia)
Procedure, shortened: as §1

[12] = test system: RERF-LC-KJ (Lung Adenocarcinoma)
Procedure, shortened: as §1

[13] = test system: SW684 (Other Solid Carcinomas)
Procedure, shortened: as §1

[14] = test system: PANC-02-03 (Pancreatic Carcinoma)
Procedure, shortened: as §1

[15] = test system: RT4 (Bladder Carcinoma)
Procedure, shortened: as §1

[16] = test system: Caov-3 (Ovarian Carcinoma)
Procedure, shortened: as §1

[17] = test system: 786-0 (Kidney Carcinoma)
Procedure, shortened: as §1

[18] = test system: SJRH30 (Rhabdomyosarcoma)
Procedure, shortened: as §1

[19] = test system: AN3-CA (Endometrial Carcinoma)
Procedure, shortened: as §1

[20] = test system: BALL-1 (B-Lymphoblastic Leukemia)
Procedure, shortened: as §1

Row | SMILES | combination Emax [1] | combination Emax [2] | combination Emax [3] | combination Emax [4] | combination Emax [5] | combination Emax [6] | combination Emax [7] | combination Emax [8] | combination Emax [9] | combination Emax [10] | combination Emax [11] | combination Emax [12] | combination Emax [13] | combination Emax [14] | combination Emax [15] | combination Emax [16] | combination Emax [17] | combination Emax [18] | combination Emax [19] | combination Emax [20]
1 | CC1(C)CCC(CN2CCN(c3ccc(C(=O)NS(=O)(=O)c4ccc(NCC5CCOCC5)c([N+](=O)[O-])c4)c(Oc4cnc5[nH]ccc5c4)c3)CC2)=C(c2ccc(Cl)cc2)C1 [Venetoclax] + C=CCn1c(=O)c2cnc(Nc3ccc(N4CCN(C)CC4)cc3)nc2n1-c1cccc(C(C)(C)O)n1 [AZD1775] (first compound max 1 µM, partner max 1 µM) | 0.386 | 0.964 | 1 | 0.492 | 0.644 | 0.93 | 1 | 0.512 | 0.574 | 0.475 | 0.995 | 0.283 | 0.604 | 0.494 | 0.372 | 0.801 | 0.582 | 0.9 | 0.446 | 1
2 | CC1(C)CCC(CN2CCN(c3ccc(C(=O)NS(=O)(=O)c4ccc(NCC5CCOCC5)c([N+](=O)[O-])c4)c(Oc4cnc5[nH]ccc5c4)c3)CC2)=C(c2ccc(Cl)cc2)C1 [Venetoclax] + CCN(CCO)CCCOc1ccc2c(Nc3cc(CC(=O)Nc4cccc(F)c4)[nH]n3)ncnc2c1 [AZD2811] (first compound max 1 µM, 7x7, partner max 1 µM) | 0.256 | 0.594 | 1 | 0.436 | 0.233 | 0.312 | 0.991 | 0.285 | 0.126 | 0.593 | 1 | 0.298 | 0.275 | 0.217 | 0.702 | 0.892 | 0.159 | 0.287 | 0.399 | 1
3 | CC1(C)CCC(CN2CCN(c3ccc(C(=O)NS(=O)(=O)c4ccc(NCC5CCOCC5)c([N+](=O)[O-])c4)c(Oc4cnc5[nH]ccc5c4)c3)CC2)=C(c2ccc(Cl)cc2)C1 [Venetoclax] + CN(C)CCCOc1ccc(-c2ccc3ncc4c(c3c2)n(C2CCOCC2)c(=O)n4C)cn1 [AZD0156] (first compound max 1 µM, 7x7, partner max 1 µM) | 0.262 | 0.339 | 1 | 0.233 | 0.22 | 0.259 | 0.947 | 0.3 | 0.113 | 0.135 | 0.959 | 0.278 | 0.284 | 0.194 | 0.189 | 0.59 | 0.195 | 0.177 | 0.227 | 1
4 | CC1(C)CCC(CN2CCN(c3ccc(C(=O)NS(=O)(=O)c4ccc(NCC5CCOCC5)c([N+](=O)[O-])c4)c(Oc4cnc5[nH]ccc5c4)c3)CC2)=C(c2ccc(Cl)cc2)C1 [Venetoclax] + COc1cc(Nc2ncc3c(n2)-c2ccc(Cl)cc2C(c2c(F)cccc2OC)=NC3)ccc1C(=O)O [Alisertib] (first compound max 1 µM, 7x7, partner max 10 µM) | 0.372 | 0.934 | 1 | 0.61 | 0.983 | 0.741 | 0.965 | 0.248 | 0.113 | 0.588 | 0.98 | 0.48 | 0.253 | 0.292 | 0.791 | 0.838 | 0.37 | 0.423 | 0.9 | 1
5 | CC1(C)CCC(CN2CCN(c3ccc(C(=O)NS(=O)(=O)c4ccc(NCC5CCOCC5)c([N+](=O)[O-])c4)c(Oc4cnc5[nH]ccc5c4)c3)CC2)=C(c2ccc(Cl)cc2)C1 [Venetoclax] + C[C@@H]1COCCN1C2=NC(=NC(=C2)C3(CC3)[S@](=N)(=O)C)C4=C5C=CNC5=NC=C4 [AZD6738] (first compound max 1 µM, 7x7, partner max 10 µM) | 0.393 | 0.975 | 1 | 0.548 | 0.789 | 0.845 | 0.993 | 0.533 | 0.376 | 0.691 | 1 | 0.313 | 0.48 | 0.508 | 0.612 | 0.794 | 0.712 | 0.864 | 0.653 | 1
6 | CC1(C)CCC(CN2CCN(c3ccc(C(=O)NS(=O)(=O)c4ccc(NCC5CCOCC5)c([N+](=O)[O-])c4)c(Oc4cnc5[nH]ccc5c4)c3)CC2)=C(c2ccc(Cl)cc2)C1 [Venetoclax] + C[C@@H](Nc1cc(F)cc(F)c1)c1cc(C(=O)N(C)C)cc2c(=O)cc(N3CCOCC3)oc12 [AZD8186] (first compound max 1 µM, 7x7, partner max 3 µM) | 0.269 | 0.313 | 1 | 0.0933 | 0.159 | 0.175 | 0.967 | 0.164 | 0.218 | 0.106 | 1 | 0.195 | 0.315 | 0.147 | 0.174 | 0.797 | 0.267 | 0.0499 | 0.457 | 1
